Here are results for 5 compounds from patent US12454675B2, “Method of increasing protein yield in mammalian cells in serum-free culture medium” (AGENCY FOR SCIENCE, TECHNOLOGY AND RESEARCH, priority 2016, dated 2025).

In one experiment the test system is CHO cell culture. As to conditions: 3.6 g/l of monosaccharides; cited from earlier work.
Another experiment concerns CHO-DG44 cells. Briefly: Disaccharides to support growth of CHO-DG44 cells in HyQ PF-CHO. As to conditions: 10 g/l sugar, 22 days. The format is cell-based, Chinese Hamster. From the text: (§1) In (A) CHO-K1 cells were cultivated in a serum-free protein-free cell culture medium, HyQ PF-CHO, with 3.6 g/l of different sugars (maltose, sucrose, lactose, trehalose or glucose) as carbohydrate source. The viable cell densities (lined markers) and culture viabilities (marker only) of these cultures at the beginning and end of each passage over a period of 74 days were plotted. Cultures with sucrose, lactose or trehalose were terminated on Day 31 due to the decreased culture viabilities and reduced viable cell densities. The experiment was repeated with a seeding cell density of 1.0×10^6 cells/ml to obtain similar results. In (B) CHO-DG44 cells were cultivated with a seeding cell density of 1.0×10^6 cells/ml in a serum-free protein-free cell culture medium, HyQ PF-CHO, with 10 g/l of different sugars (maltose, sucrose, lactose, trehalose or glucose) as carbohydrate source. The viable cell densities (lined markers) and cell viabilities (marker only) of these cultures at the beginning and end of each passage over a period of 22 days were plotted. In (C) HEK293 cells were cultivated with a seeding cell density of 1.0×10^6 cells/ml in a protein-free chemically defined cell culture medium, PFCDM, with 10 g/l of different sugars (maltose, sucrose, lactose, trehalose or glucose) as carbohydrate source. The viable cell densities (lined markers) and cell viabilities (marker only) of these cultures at the beginning and end of each passage over a period of 22 days were plotted. Cultures with sucrose, lactose or trehalose were terminated on Day 14 due to the decreased culture viabilities and reduced viable cell densities.
To determine whether the same approach can be applied on other CHO cell lines, the use of disaccharides to support the growth of CHO-DG44 cells was evaluated. These cells were cultivated with 10 g/l of maltose, sucrose, lactose, trehalose or glucose as energy source in a serum-free protein-free cell culture medium HyQ PF-CHO. The viable cell densities and culture viabilities of these cultures at the beginning and end of each passage over a period of 22 days are shown in FIG. 1B.

The test system of the next experiment is CHO-K1 cells. Briefly: Adaptation of CHO-K1 cells into HyQ PF-CHO media with different disaccharides. It is filed as cell-based, Chinese Hamster. As to conditions: 3.6 g/l sugar, seeding 0.3×10^6 cells/ml, 74 days. The method, then: Viable cell density and culture viability were determined by Trypan blue dye exclusion method using Vi-Cell XR Cell Viability Analyzer (Beckman Coulter, Brea, CA) according to manufacturer's instructions. For biochemical and other cell culture parameter analyses, 1 ml of culture sample was centrifuged at 8000 g for 10 minutes to obtain clarified supernatant. […] At each passage during the adaptation process, viable cell density and culture viability before passage and after inoculation into fresh media were determined. […] Osmolality of these culture media were determined to be between 308 and 324 mOsm/kg, well within the range for optimal mammalian cell culture. The viable cell densities and culture viabilities of these cultures at the beginning and end of each passage over a period of 74 days are shown in FIG. 1. […] However, culture viabilities and viable cell densities of the maltose culture started to pick up on Day 14. Proliferation of the cells in maltose culture then maintained over the period of the time studied, while those in the other disaccharides were terminated on Day 31 due to the lack of cell growth and depressed culture viabilities.

For the next experiment, the system named is HEK293 cells. Briefly: Disaccharides to support growth of HEK293 cells in PFCDM. It is filed as cell-based. As to conditions: 10 g/l sugar, seeding 1.0×10^6 cells/ml, 22 days.
Excerpt: as §1

SMILES strings stand for the structures.

On to `O=C[C@H](O)[C@@H](O)[C@@H](O)[C@H](O)CO` [galactose], for which the specific consumption rate in the experiment on CHO cell culture is 0.21 ng/cell/day.

For `OC[C@H]1O[C@@](CO)(O[C@H]2O[C@H](CO)[C@@H](O)[C@H](O)[C@H]2O)[C@@H](O)[C@@H]1O` [sucrose], the “proliferation in serum-free protein-free culture medium with the sugar as sugar source” value in the experiment on CHO-DG44 cells and in the experiment with CHO-K1 cells was “not” throughout. For the same compound, the “proliferation in serum-free culture medium with the sugar as sugar source” value in the experiment with HEK293 cells was “not”.

`OC[C@H]1O[C@H](O[C@H]2O[C@H](CO)[C@@H](O)[C@H](O)[C@H]2O)[C@H](O)[C@@H](O)[C@@H]1O` [trehalose]: the “proliferation in serum-free protein-free culture medium with the sugar as sugar source” value in the experiment on CHO-DG44 cells and in the experiment with CHO-K1 cells was “not” each time. In addition, the “proliferation in serum-free culture medium with the sugar as sugar source” value in the experiment with HEK293 cells is recorded as “not”.

For the compound `O=C(CO)[C@@H](O)[C@H](O)[C@H](O)CO` [fructose], the specific consumption rate in the experiment on CHO cell culture is 0.21 ng/cell/day.

With `OC[C@H]1O[C@@H](O[C@H]2[C@H](O)[C@@H](O)C(O)O[C@@H]2CO)[C@H](O)[C@@H](O)[C@H]1O` (some centres unmarked) [lactose], the “proliferation in serum-free protein-free culture medium with the sugar as sugar source” value in the experiment with CHO-DG44 cells and in the experiment with CHO-K1 cells was “not” in each case. Moreover, in the experiment with HEK293 cells, the “proliferation in serum-free culture medium with the sugar as sugar source” value was “not”.
